Results taken from patent US20260337245A1, “POLYPEPTIDE OR ANALOG THEREOF AND USE THEREOF” (Shenzhen Bay Laboratory, priority 2024, published 2026).
Starred links: 1 amine or outer side, 2 acyl side, 3 side chain; linkers in the order of their positions; H or OH if unused. Positions of bridges follow the written chain, without caps; N, C: chain ends. Non-standard residues stand in square brackets, D forms with d. Residues, ends and D or L forms follow the SMILES beside them. X1 = O=C(O)CCCCCCCCCCCCCCCCCCC(=O)N[C@@H](CCCCNC(=O)COCCOCCNC(=O)COCCOCCNC(=O)CCC(=O)N(CCNC(=O)C[*:1])CCNC(=O)C[*:2])C(=O)O; Hyp = O=C(O)[C@@H]1C[C@@H](O)CN1; αMeK = C[C@](N)(CCCCN)C(=O)O; Aib = CC(C)(N)C(=O)O

Legend:
[1] = Pharmacokinetic evaluation in Cynomolgus macaques; assay type: in vivo, adult male Cynomolgus macaques; conditions: cynomolgus monkey, plasma, 0.2 mg/kg
Protocol: 2. The pharmacokinetic behaviors of the polypeptide derivatives (i.e., AMY-001 to AMY-041) prepared in Example 1 and Example 2 in Cynomolgus macaques were tested.
Each polypeptide derivatives (i.e., AMY-001 to AMY-041) was respectively administered to adult male Cynomolgus macaques as a single injection via subcutaneous injection (S.C., 0.2 mg/kg, with PBS as a medicament vehicle, a concentration of 0.2 mg/mL, […], with PBS as a medicament vehicle, a concentration of 0.2 mg/mL, and an administration volume of 1 mL), respectively. After administration, whole blood samples were respectively collected from the jugular vein or other appropriate veins at selected time points. 0.2 mL of blood was collected and placed in a labeled EDTA-K2 anticoagulant tube. The tube was gently inverted up and down to ensure thorough mixing of the anticoagulant (EDTA-K2) with the blood, immediately placed on wet ice and centrifuged as soon as possible to separate plasma, and the centrifugation conditions were set to 4° C., 6800 g, and 6 minutes. Plasma samples were stored in a refrigerator at a temperature not exceeding −20° C. for subsequent analysis.
(§1) Under yellow light conditions in an ice water bath, (1) except for the blank sample, 300 μL of precipitant containing internal standard was added to a 96-well plate containing 20 μL of a standard curve sample, a quality control sample or an unknown sample; 300 μL of acetonitrile was added to the blank sample; (2) vortex mixing; (3) centrifugation; (4) 150 μL of supernatant was taken and added into a new 96-well plate, and then mixed well with 150 μL of ultrapure water; and (5) the above samples were quantitatively analyzed by using LC-MS analysis. Gradient elution was performed on a XB—C18 chromatographic column (2.1*100 mm, 3 μm), with the mobile phase as follows: mobile phase A=0.1% formic acid-water; and mobile phase B=acetonitrile. Pharmacokinetic parameters were calculated using Phoenix WinNonlin software.

[2] = Pharmacokinetic evaluation in SD rats; assay type: in vivo, male SD rat; conditions: plasma, rat
Protocol: 1. The pharmacokinetic behaviors of the polypeptide derivatives (i.e., AMY-001 to AMY-041) prepared in Example 1 and Example 2 in SD rats were tested.
Each polypeptide derivative (i.e., AMY-001 to AMY-041) was administered to male SD rat as a single injection via subcutaneous injection (SC, 3 mg/kg, with PBS as a medicament vehicle, a concentration of 1.5 mg/mL, and an administration volume of 2 mL) and intravenous injection (IV, 1 mg/kg, with PBS as a medicament vehicle, a concentration of 0.5 mg/mL, and an administration volume of 2 mL), respectively. After administration, whole blood samples were respectively collected from the jugular vein or other appropriate veins at selected time points. 0.2 mL of blood was collected and placed in a labeled EDTA-K2 anticoagulant tube. The tube was gently inverted up and down to ensure thorough mixing of the anticoagulant (EDTA-K2) with the blood, immediately placed on wet ice and centrifuged as soon as possible to separate plasma, and the centrifugation conditions were set to 4° C., 6800 g, and 6 minutes. Plasma samples were stored in a refrigerator at a temperature not exceeding −20° C. until subsequent analysis.
as §1, with “(5) The” for “(5) the”, “A=0.1% (volume percentage, v/v)” for “A=0.1%”

[3] = background, in words; cited from earlier work
[4] = background, in words; cited from earlier work; remark: listed apart in the source

Row | Compound | AUC(0-inf) ([1]; IV (0.2 mpk)) [µg·h/mL] | clearance ([1]; IV (0.2 mpk)) [mL/h/kg] | half-life ([1]; IV (0.2 mpk)) [h] | AUC(0-inf) ([1]; SC (0.2 mpk)) [µg·h/mL] | Cmax ([1]; SC (0.2 mpk)) [ng/mL] | Tmax ([1]; SC (0.2 mpk)) [h] | bioavailability ([1]; SC (0.2 mpk)) [%] | half-life ([1]; SC (0.2 mpk)) [h] | AUC(0-inf) ([2]; 1 mg/kg, IV (1 mpk)) [µg·h/mL] | clearance ([2]; 1 mg/kg, IV (1 mpk)) [mL/h/kg] | half-life ([2]; 1 mg/kg, IV (1 mpk)) [h] | AUC(0-inf) ([2]; 3 mg/kg, SC (3 mpk)) [µg·h/mL] | Cmax ([2]; 3 mg/kg, SC (3 mpk)) [ng/mL] | Tmax ([2]; 3 mg/kg, SC (3 mpk)) [h] | bioavailability ([2]; 3 mg/kg, SC (3 mpk)) [%] | half-life ([2]; 3 mg/kg, SC (3 mpk)) [h] | stability [3] | in-vivo half-life [4]
1 | CC(=O)N[C@@H](C)C(=O)N[C@@H](CO)C(=O)N[C@@H](Cc1c[nH]cn1)C(=O)N[C@@H](CC(C)C)C(=O)N[C@@H](CO)C(=O)N[C@H](C(=O)N[C@@H](C)C(=O)N[C@H]1CSCC(=O)NCCN(C(=O)CCC(=O)NCCOCCOCC(=O)NCCOCCOCC(=O)NCCCC[C@H](NC(=O)CCCCCCCCCCCCCCCCCCC(=O)O)C(=O)O)CCNC(=O)CSC[C@@H](C(=O)N[C@@H](CC(C)C)C(=O)N[C@@H](Cc2c[nH]cn2)C(=O)N[C@@](C)(CCCCN)C(=O)N[C@@H](CC(C)C)C(=O)NC(C)(C)C(=O)N[C@@H](CC(=O)O)C(=O)N[C@@H](Cc2ccc(O)cc2)C(=O)N2CCC[C@H]2C(=O)N[C@@H](CCC(N)=O)C(=O)N[C@H](C(=O)N[C@@H](CC(=O)O)C(=O)N[C@H](C(=O)NCC(=O)N[C@@H](C)C(=O)NCC(=O)N[C@@H](CO)C(=O)N2C[C@H](O)C[C@H]2C(N)=O)C(C)C)[C@@H](C)O)NC(=O)[C@H](C)NC(=O)[C@H](CO)NC(=O)[C@H](CC(C)C)NC(=O)[C@H](CCCNC(=N)N)NC(=O)CNC(=O)[C@H](CC(C)C)NC1=O)[C@@H](C)O [AMY-015, Ac-ASHLSTACLGRLSACLH-(αMeK)-L-Aib-DYPQTDVGAGS-Hyp-NH2] (Ac-ASHLSTACLGRLSACLH[αMeK]L[Aib]DYPQTDVGAGS[Hyp]-NH2; linker 8-15 via X1) | 942 | 0.217 | 146 | 514 | 2260 | 24 | 54.5 | 143 | 286 | 3.52 | 20.5 | 567 | 11100 | 24 | 66.1 | 20.6 |  | 
2 | CC(C)C[C@H](NC(=O)[C@H](CCCCN)NC(=O)CNC(=O)[C@H](CC(C)C)NC(=O)[C@@H](NC(=O)[C@@H]1CSSC[C@H](N)C(=O)N[C@@H](CO)C(=O)N[C@@H](CC(N)=O)C(=O)N[C@@H](CC(C)C)C(=O)N[C@@H](CO)C(=O)N[C@@H]([C@@H](C)O)C(=O)N1)C(C)C)C(=O)N[C@@H](CO)C(=O)N[C@@H](CCC(N)=O)C(=O)N[C@@H](CCC(=O)O)C(=O)N[C@@H](CC(C)C)C(=O)N[C@@H](Cc1c[nH]cn1)C(=O)N[C@@H](CCCCN)C(=O)N[C@@H](CC(C)C)C(=O)N[C@@H](CCC(N)=O)C(=O)N[C@H](C(=O)N[C@@H](Cc1ccc(O)cc1)C(=O)N1CCC[C@H]1C(=O)N[C@@H](CCCNC(=N)N)C(=O)N[C@H](C(=O)N[C@@H](CC(N)=O)C(=O)N[C@H](C(=O)NCC(=O)N[C@@H](CO)C(=O)NCC(=O)N[C@H](C(=O)N1CCC[C@H]1C(N)=O)[C@@H](C)O)[C@@H](C)O)[C@@H](C)O)[C@@H](C)O [sCT] |  |  |  |  |  |  |  |  |  |  |  |  |  |  |  |  | poor stability | short in-vivo half-life
